Measurements taken from the supplement of paper PMC10307832.

Key:
Test in all cases: relative viability (nuclei count vs DMSO), 5 days (fraction); higher = more cells survive
[1] = compound: NC1(c2ccc(-c3nc4ccn5c(=O)[nH]nc5c4cc3-c3ccccc3)cc2)CCC1 [MK-2206] + CS(=O)(=O)CCNCc1ccc(-c2ccc3ncnc(Nc4ccc(OCc5cccc(F)c5)c(Cl)c4)c3c2)o1 [Lapatinib] (partner 2 µM)
How it was run: (§1)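 Lung cancer cell lines in 1536-well plates got either a single drug or a fixed anchor-drug dose together with five library-drug doses (not always all listed) in √10 steps, by pin tool, on the day after seeding. Nuclei were counted after 5 days, and relative viability is the treated-to-vehicle ratio of nuclei counts. Values are medians of duplicate plates.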

[2] = compound: NC1(c2ccc(-c3nc4ccn5c(=O)[nH]nc5c4cc3-c3ccccc3)cc2)CCC1 [MK-2206] + CC(C)C[C@H](NC(=O)[C@H](Cc1ccccc1)NC(=O)c1cnccn1)B(O)O [Bortezomib] (partner 0.002 µM)
How it was run: as §1

[3] = compound: CS(=O)(=O)N1CCN(Cc2cc3nc(-c4cccc5[nH]ncc45)nc(N4CCOCC4)c3s2)CC1 [Pictilisib] + CC(=O)Nc1cccc(-n2c(=O)n(C3CC3)c(=O)c3c(Nc4ccc(I)cc4F)n(C)c(=O)c(C)c32)c1 [Trametinib] (partner 0.02 µM)
How it was run: as §1

[4] = compound: CS(=O)(=O)N1CCN(Cc2cc3nc(-c4cccc5[nH]ncc45)nc(N4CCOCC4)c3s2)CC1 [Pictilisib] + Nc1nc2[nH]cc(CCc3ccc(C(=O)N[C@@H](CCC(=O)O)C(=O)O)cc3)c2c(=O)[nH]1 [Pemetrexed] (partner 0.2 µM)
How it was run: as §1

[5] = compound: NC1(c2ccc(-c3nc4ccn5c(=O)[nH]nc5c4cc3-c3ccccc3)cc2)CCC1 [MK-2206] + C[C@]1(O)C[C@@H](c2nc(-c3ccc4ccc(-c5ccccc5)nc4c3)c3c(N)nccn32)C1 [Linsitinib] (partner 1 µM)
How it was run: as §1

Cell Line | relative viability ([1]; first compound 0.01 µM) | relative viability ([1]; first compound 0.03162 µM) | relative viability ([1]; first compound 0.3162 µM) | relative viability ([1]; first compound 1 µM) | relative viability ([2]; first compound 0.01 µM) | relative viability ([2]; first compound 0.03162 µM) | relative viability ([2]; first compound 0.3162 µM) | relative viability ([2]; first compound 1 µM) | relative viability ([3]; first compound 0.02 µM) | relative viability ([3]; first compound 0.06325 µM) | relative viability ([3]; first compound 0.6325 µM) | relative viability ([3]; first compound 2 µM) | relative viability ([4]; first compound 0.02 µM) | relative viability ([4]; first compound 0.06325 µM) | relative viability ([4]; first compound 0.6325 µM) | relative viability ([4]; first compound 2 µM) | relative viability ([5]; first compound 0.01 µM) | relative viability ([5]; first compound 0.03162 µM) | relative viability ([5]; first compound 0.3162 µM) | relative viability ([5]; first compound 1 µM)
NCI-H661 | 0.422 | 0.581 | 0.503 | 0.51 | 0.857 | 0.864 | 0.862 | 0.989 | 0.532 | 0.589 | 0.469 | 0.356 | 0.956 | 0.982 | 0.9 | 0.711 | 0.583 | 0.725 | 0.665 | 0.541
CAL-12T | 0.682 | 0.698 | 0.667 | 0.454 | 0.971 | 0.928 | 0.947 | 0.963 | 0.332 | 0.331 | 0.221 | 0.178 | 1.31 | 1.4 | 1.18 | 1.04 | 0.742 | 0.877 | 0.761 | 0.739
HARA | 0.774 | 0.81 | 0.567 | 0.51 | 1.16 | 1.31 | 1.08 | 0.916 | 0.626 | 0.715 | 0.479 | 0.129 | 0.277 | 0.329 | 0.239 | 0.212 | 0.907 | 0.919 | 0.906 | 0.922
NCI-H596 | 1.12 | 1.11 | 0.912 | 0.684 | 1.07 | 1.09 | 0.964 | 0.648 | 0.795 | 0.764 | 0.515 | 0.327 | 0.472 | 0.508 | 0.509 | 0.318 | 1.14 | 1.11 | 0.846 | 0.734
LU99A | 1.05 | 0.871 | 0.904 | 0.877 | 1.27 | 1.12 | 1.14 | 1.06 | 0.579 | 0.478 | 0.407 | 0.239 | 0.198 | 0.179 | 0.19 | 0.164 | 0.51 | 0.506 | 0.523 | 0.421
LC-2-ad | 0.944 | 1.08 | 1.03 | 0.542 | 0.971 | 1.09 | 1.01 | 0.91 | 0.892 | 0.945 | 0.73 | 0.629 | 0.277 | 0.278 | 0.272 | 0.23 | 0.813 | 0.843 | 0.909 | 0.781
NCI-H1650 | 0.685 | 0.768 | 0.687 | 0.784 | 0.196 | 0.195 | 0.207 | 0.2 | 0.595 | 0.662 | 0.506 | 0.382 | 0.325 | 0.361 | 0.358 | 0.302 |  |  |  | 
NCI-H1915 | 0.954 | 0.984 | 0.978 | 1.02 | 0.969 | 1.02 | 0.983 | 0.862 | 0.322 | 0.295 | 0.285 | 0.244 | 0.548 | 0.524 | 0.464 | 0.394 | 1.12 | 1.07 | 1.04 | 1.09
ABC-1 | 1.32 | 1.29 | 1.08 | 1.13 | 0.302 | 0.219 | 0.43 | 0.352 |  |  |  |  |  |  |  |  | 0.799 | 0.742 | 0.881 | 0.868
HCC-44 | 1.01 | 1.01 | 1.05 | 1.07 | 0.921 | 0.86 | 0.877 | 0.874 | 0.896 | 1.03 | 1.01 | 0.643 | 0.655 | 0.642 | 0.695 | 0.673 | 0.662 | 0.652 | 0.556 | 0.445
HCC-78 | 0.703 | 0.376 | 0.88 | 0.703 | 0.415 | 0.606 | 0.475 | 0.395 | 0.681 | 0.561 | 0.404 | 0.281 | 0.894 | 0.911 | 0.861 | 0.893 | 0.505 | 0.576 | 0.388 | 0.316
LXF-289 | 0.907 | 0.985 | 0.911 | 0.901 | 0.949 | 1.04 | 1.06 | 1.06 | 0.693 | 0.691 | 0.705 | 0.385 | 0.948 | 0.874 | 0.983 | 0.669 | 0.954 | 0.988 | 0.966 | 0.99
201T | 0.988 | 1.12 | 1.02 | 1.12 | 1.06 | 1.13 | 1.17 | 1.16 | 0.737 | 0.686 | 0.659 | 0.585 | 0.301 | 0.352 | 0.289 | 0.276 | 1.05 | 0.941 | 1.03 | 1.03
NCI-H1734 | 0.758 | 1.05 | 0.789 | 0.869 | 0.847 | 1.02 | 0.66 | 0.725 | 0.692 | 0.717 | 0.499 | 0.315 | 0.39 | 0.417 | 0.39 | 0.355 | 0.816 | 0.934 | 0.632 | 0.584
NCI-H2126 | 0.803 | 0.739 | 0.75 | 0.737 | 1.09 | 1.11 | 1.07 | 1.06 | 0.532 | 0.531 | 0.378 | 0.278 | 0.692 | 0.661 | 0.518 | 0.379 | 0.742 | 0.634 | 0.63 | 0.686
LOU-NH91 | 0.786 | 0.739 | 0.603 | 0.584 | 0.466 | 0.521 | 0.47 | 0.443 | 0.867 | 0.715 | 0.68 | 0.567 | 0.381 | 0.368 | 0.4 | 0.372 | 0.939 | 1.01 | 0.941 | 0.844
